Measured values published in patent US9062124B2, “GIP-based mixed agonists for treatment of metabolic disorders and obesity” (priority 2008, dated 2015).
Where a SMILES comes first, the peptide text is derived from it. [ ]: non-standard residue; d: D form. The star is where a group is joined. Myristoyl = CCCCCCCCCCCCCC(=O)*; Aib = CC(C)(N)C(=O)O

Columns and labels:
Type in all cases: cell-based
glucagon receptor = target: T1, glucagon receptor (Homo sapiens, UniProt P47871); assay: cAMP synthesis functional assay (firefly luciferase reporter in HEK293 cells), glucagon receptor; settings: for EC50: Glucagon Receptor EC50, cAMP luciferase reporter assay as in Example 16
T1 construct: expressed in transfected cells; host or cells: HEK293

GLP-1 receptor = target: T2, GLP-1 receptor (Homo sapiens, UniProt P43220); assay: cAMP synthesis functional assay (firefly luciferase reporter in HEK293 cells), GLP-1 receptor; settings: for EC50: GLP-1 Receptor EC50, cAMP luciferase reporter assay as in Example 16
T2 construct: expressed in transfected cells; host or cells: HEK293

GIP receptor = target: T3, GIP receptor (Homo sapiens, UniProt P48546); assay: cAMP synthesis functional assay (firefly luciferase reporter in HEK293 cells), GIP receptor; settings: for EC50: GIP Receptor EC50, cAMP luciferase reporter assay as in Example 16
T3 construct: expressed in transfected cells; host or cells: HEK293
T3 sequence (P48546 22-466): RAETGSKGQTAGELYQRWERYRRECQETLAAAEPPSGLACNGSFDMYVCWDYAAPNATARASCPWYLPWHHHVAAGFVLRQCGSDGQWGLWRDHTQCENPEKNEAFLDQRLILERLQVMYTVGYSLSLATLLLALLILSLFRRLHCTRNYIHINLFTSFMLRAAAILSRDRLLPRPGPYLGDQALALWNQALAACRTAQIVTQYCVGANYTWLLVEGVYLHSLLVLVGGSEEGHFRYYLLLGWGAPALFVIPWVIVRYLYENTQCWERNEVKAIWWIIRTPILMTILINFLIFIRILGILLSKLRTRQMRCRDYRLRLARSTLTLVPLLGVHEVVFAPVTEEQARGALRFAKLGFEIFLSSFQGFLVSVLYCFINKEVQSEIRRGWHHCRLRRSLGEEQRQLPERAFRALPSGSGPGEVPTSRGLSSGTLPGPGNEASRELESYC

[1] = relative to the standard (Std.) EC50 of the same run
[2] = Table 4, relative to the native hormone

T1 sequence (P47871 26-477): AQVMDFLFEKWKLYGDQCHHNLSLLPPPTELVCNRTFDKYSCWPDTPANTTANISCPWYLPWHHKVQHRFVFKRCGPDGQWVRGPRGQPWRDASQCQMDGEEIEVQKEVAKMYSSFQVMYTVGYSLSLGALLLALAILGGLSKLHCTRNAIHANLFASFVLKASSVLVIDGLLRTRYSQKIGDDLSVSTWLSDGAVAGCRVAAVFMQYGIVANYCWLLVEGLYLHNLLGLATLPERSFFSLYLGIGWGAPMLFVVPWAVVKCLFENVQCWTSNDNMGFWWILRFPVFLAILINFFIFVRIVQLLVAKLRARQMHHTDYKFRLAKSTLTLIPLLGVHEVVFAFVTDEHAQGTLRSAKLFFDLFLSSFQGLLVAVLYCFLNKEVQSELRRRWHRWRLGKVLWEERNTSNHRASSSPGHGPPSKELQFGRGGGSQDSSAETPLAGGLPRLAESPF
T2 sequence (P43220 24-463, species assumed): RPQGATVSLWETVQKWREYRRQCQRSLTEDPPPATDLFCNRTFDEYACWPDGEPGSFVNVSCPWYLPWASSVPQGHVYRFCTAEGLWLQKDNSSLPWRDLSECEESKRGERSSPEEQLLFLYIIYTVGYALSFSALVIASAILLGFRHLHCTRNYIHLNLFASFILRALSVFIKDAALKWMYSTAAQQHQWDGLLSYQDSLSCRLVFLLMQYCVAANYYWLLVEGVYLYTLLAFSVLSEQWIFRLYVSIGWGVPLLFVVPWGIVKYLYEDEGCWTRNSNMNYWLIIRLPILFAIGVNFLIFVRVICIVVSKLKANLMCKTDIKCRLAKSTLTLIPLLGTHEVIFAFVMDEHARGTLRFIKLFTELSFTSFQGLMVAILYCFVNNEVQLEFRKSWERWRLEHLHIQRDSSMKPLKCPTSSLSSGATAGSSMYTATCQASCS

Structure (SMILES)	EC50 (glucagon receptor) [pM]	Glucagon Receptor relative activity (glucagon receptor; [1]) [%]	EC50 (GLP-1 receptor) [pM]	GLP-1 Receptor relative activity (GLP-1 receptor; [1]) [%]	EC50 (GIP receptor) [pM]	GIP Receptor relative activity (GIP receptor; [1]) [%]	Glucagon Receptor relative activity (glucagon receptor; [2]) [%]	GLP-1 Receptor relative activity (GLP-1 receptor; [2]) [%]	GIP Receptor relative activity (GIP receptor; [2]) [%]
CCCCCCCCCCCCCC(=O)NCCCC[C@@H](NC(=O)[C@H](CO)NC(=O)[C@@H]1CCCN1C(=O)[C@@H]1CCCN1C(=O)[C@@H]1CCCN1C(=O)[C@H](C)NC(=O)CNC(=O)[C@H](CO)NC(=O)[C@H](CO)NC(=O)[C@@H]1CCCN1C(=O)CNC(=O)CNC(=O)[C@H](C)NC(=O)[C@H](CC(C)C)NC(=O)[C@H](CC(C)C)NC(=O)[C@H](Cc1c[nH]c2ccccc12)NC(=O)[C@H](CS)NC(=O)[C@@H](NC(=O)[C@H](Cc1ccccc1)NC(=O)[C@H](CCC(=O)O)NC(=O)C(C)(C)NC(=O)[C@H](C)NC(=O)[C@H](C)NC(=O)[C@H](CCC(N)=O)NC(=O)[C@H](CCCCN)NC(=O)[C@H](CC(=O)O)NC(=O)[C@H](CC(C)C)NC(=O)[C@H](Cc1ccc(O)cc1)NC(=O)[C@@H](NC(=O)[C@H](CO)NC(=O)[C@H](Cc1ccc(O)cc1)NC(=O)[C@H](CC(=O)O)NC(=O)[C@H](CO)NC(=O)[C@@H](NC(=O)[C@H](Cc1ccccc1)NC(=O)[C@@H](NC(=O)CNC(=O)[C@H](CCC(=O)O)NC(=O)C(C)(C)NC(=O)[C@@H](N)Cc1ccc(O)cc1)[C@@H](C)O)[C@@H](C)O)[C@@H](C)CC)C(C)C)C(N)=O [mt-333]	690	2.80	2.8	85.71	3.4	226.47	–	–	–
CC[C@H](C)[C@H](NC(=O)[C@H](CO)NC(=O)[C@H](Cc1ccc(O)cc1)NC(=O)[C@H](CC(=O)O)NC(=O)[C@H](CO)NC(=O)[C@@H](NC(=O)[C@H](Cc1ccccc1)NC(=O)[C@@H](NC(=O)CNC(=O)[C@H](CCC(=O)O)NC(=O)C(C)(C)NC(=O)[C@@H](N)Cc1ccc(O)cc1)[C@@H](C)O)[C@@H](C)O)C(=O)N[C@@H](Cc1ccc(O)cc1)C(=O)N[C@@H](CC(C)C)C(=O)N[C@@H](CC(=O)O)C(=O)N[C@@H](CCCCN)C(=O)N[C@@H](CCC(N)=O)C(=O)N[C@@H](C)C(=O)N[C@@H](C)C(=O)NC(C)(C)C(=O)N[C@@H](CCC(=O)O)C(=O)N[C@@H](Cc1ccccc1)C(=O)N[C@H](C(=O)N[C@@H](CS)C(=O)N[C@@H](Cc1c[nH]c2ccccc12)C(=O)N[C@@H](CC(C)C)C(=O)N[C@@H](CC(C)C)C(=O)N[C@@H](C)C(=O)NCC(=O)NCC(=O)N1CCC[C@H]1C(=O)N[C@@H](CO)C(=O)N[C@@H](CO)C(=O)NCC(=O)N[C@@H](C)C(=O)N1CCC[C@H]1C(=O)N1CCC[C@H]1C(=O)N1CCC[C@H]1C(=O)N[C@@H](CO)C(=O)N[C@H](CCCCN)C(N)=O)C(C)C [mt-334]	7070	0.27	3.4	70.59	4.1	187.80	–	–	–
CCCCCCCCCCCCCC(=O)NCCCC[C@H](NC(=O)[C@H](CC(=O)O)NC(=O)[C@H](CO)NC(=O)[C@@H](NC(=O)[C@H](Cc1ccccc1)NC(=O)[C@@H](NC(=O)CNC(=O)[C@H](CCC(=O)O)NC(=O)C(C)(C)NC(=O)[C@@H](N)Cc1ccc(O)cc1)[C@@H](C)O)[C@@H](C)O)C(=O)N[C@@H](CO)C(=O)N[C@H](C(=O)N[C@@H](Cc1ccc(O)cc1)C(=O)N[C@@H](CC(C)C)C(=O)N[C@@H](CC(=O)O)C(=O)N[C@@H](CCCCN)C(=O)N[C@@H](CCC(N)=O)C(=O)N[C@@H](C)C(=O)N[C@@H](C)C(=O)NC(C)(C)C(=O)N[C@@H](CCC(=O)O)C(=O)N[C@@H](Cc1ccccc1)C(=O)N[C@H](C(=O)N[C@@H](CS)C(=O)N[C@@H](Cc1c[nH]c2ccccc12)C(=O)N[C@@H](CC(C)C)C(=O)N[C@@H](CC(C)C)C(=O)N[C@@H](C)C(=O)NCC(=O)NCC(=O)N1CCC[C@H]1C(=O)N[C@@H](CO)C(=O)N[C@@H](CO)C(=O)NCC(=O)N[C@@H](C)C(=O)N1CCC[C@H]1C(=O)N1CCC[C@H]1C(=O)N1CCC[C@H]1C(=O)N[C@@H](CO)C(N)=O)C(C)C)[C@@H](C)CC [mt-337] (H-Y[Aib]EGTFTSDK(Myristoyl)SIYLDKQAA[Aib]EFVCWLLAGGPSSGAPPPS-NH2; N-terminus assumed)	–	0.02	8.2	74.39	8	115.00	–	–	–
CC[C@H](C)[C@H](NC(=O)[C@H](CO)NC(=O)[C@H](CCCCN)NC(=O)[C@H](CC(=O)O)NC(=O)[C@H](CO)NC(=O)[C@@H](NC(=O)[C@H](Cc1ccccc1)NC(=O)[C@@H](NC(=O)CNC(=O)[C@H](CCC(=O)O)NC(=O)C(C)(C)NC(=O)[C@@H](N)Cc1ccc(O)cc1)[C@@H](C)O)[C@@H](C)O)C(=O)N[C@@H](Cc1ccc(O)cc1)C(=O)N[C@@H](CC(C)C)C(=O)N[C@@H](CC(=O)O)C(=O)N[C@@H](CCCCN)C(=O)N[C@@H](CCC(N)=O)C(=O)N[C@@H](C)C(=O)N[C@@H](C)C(=O)NC(C)(C)C(=O)N[C@@H](CCC(=O)O)C(=O)N[C@@H](Cc1ccccc1)C(=O)N[C@H](C(=O)N[C@@H](CS)C(=O)N[C@@H](Cc1c[nH]c2ccccc12)C(=O)N[C@@H](CC(C)C)C(=O)N[C@@H](CC(C)C)C(=O)N[C@@H](C)C(=O)NCC(=O)NCC(=O)N1CCC[C@H]1C(=O)N[C@@H](CO)C(=O)N[C@@H](CO)C(=O)NCC(=O)N[C@@H](C)C(=O)N1CCC[C@H]1C(=O)N1CCC[C@H]1C(=O)N1CCC[C@H]1C(=O)N[C@@H](CO)C(N)=O)C(C)C [mt-338] (H-Y[Aib]EGTFTSDKSIYLDKQAA[Aib]EFVCWLLAGGPSSGAPPPS-NH2; N-terminus assumed)	–	0.01	226	2.70	23.4	39.32	–	–	–
CCCCCCCCCCCCCC(=O)NCCCC[C@H](NC(=O)[C@H](CO)NC(=O)[C@@H]1CCCN1C(=O)[C@@H]1CCCN1C(=O)[C@@H]1CCCN1C(=O)[C@H](C)NC(=O)CNC(=O)[C@H](CO)NC(=O)[C@H](CO)NC(=O)[C@@H]1CCCN1C(=O)CNC(=O)CNC(=O)[C@H](C)NC(=O)[C@H](CC(C)C)NC(=O)[C@H](CC(C)C)NC(=O)[C@H](Cc1c[nH]c2ccccc12)NC(=O)[C@H](CC(N)=O)NC(=O)[C@@H](NC(=O)[C@H](Cc1ccccc1)NC(=O)[C@H](CCC(=O)O)NC(=O)C(C)(C)NC(=O)[C@H](C)NC(=O)[C@H](C)NC(=O)[C@H](CCC(N)=O)NC(=O)[C@H](CCCCN)NC(=O)[C@H](CC(=O)O)NC(=O)[C@H](CC(C)C)NC(=O)[C@H](Cc1ccc(O)cc1)NC(=O)[C@@H](NC(=O)[C@H](CO)NC(=O)[C@H](Cc1ccc(O)cc1)NC(=O)[C@H](CC(=O)O)NC(=O)[C@H](CO)NC(=O)[C@@H](NC(=O)[C@H](Cc1ccccc1)NC(=O)[C@@H](NC(=O)CNC(=O)[C@H](CCC(=O)O)NC(=O)C(C)(C)NC(=O)[C@@H](N)Cc1ccc(O)cc1)[C@@H](C)O)[C@@H](C)O)[C@@H](C)CC)C(C)C)C(=O)N[C@@H](CS)C(N)=O [mt-339]	–	0.28	–	66.30	–	230.00	–	–	–
CC[C@H](C)[C@H](NC(=O)[C@H](CO)NC(=O)[C@H](Cc1ccc(O)cc1)NC(=O)[C@H](CC(=O)O)NC(=O)[C@H](CO)NC(=O)[C@@H](NC(=O)[C@H](Cc1ccccc1)NC(=O)[C@@H](NC(=O)CNC(=O)[C@H](CCC(=O)O)NC(=O)C(C)(C)NC(=O)[C@@H](N)Cc1ccc(O)cc1)[C@@H](C)O)[C@@H](C)O)C(=O)N[C@@H](Cc1ccc(O)cc1)C(=O)N[C@@H](CC(C)C)C(=O)N[C@@H](CC(=O)O)C(=O)N[C@@H](CCCCN)C(=O)N[C@@H](CCC(N)=O)C(=O)N[C@@H](C)C(=O)N[C@@H](C)C(=O)NC(C)(C)C(=O)N[C@@H](CCC(=O)O)C(=O)N[C@@H](Cc1ccccc1)C(=O)N[C@H](C(=O)N[C@@H](CC(N)=O)C(=O)N[C@@H](Cc1c[nH]c2ccccc12)C(=O)N[C@@H](CC(C)C)C(=O)N[C@@H](CC(C)C)C(=O)N[C@@H](C)C(=O)NCC(=O)NCC(=O)N1CCC[C@H]1C(=O)N[C@@H](CO)C(=O)N[C@@H](CO)C(=O)NCC(=O)N[C@@H](C)C(=O)N1CCC[C@H]1C(=O)N1CCC[C@H]1C(=O)N1CCC[C@H]1C(=O)N[C@@H](CO)C(=O)N[C@@H](CCCCN)C(=O)N[C@@H](CS)C(N)=O)C(C)C [mt-340]	–	0.24	–	100.00	2.8	328.57	–	–	–
CC[C@H](C)[C@H](NC(=O)[C@H](CO)NC(=O)[C@H](Cc1ccc(O)cc1)NC(=O)[C@H](CC(=O)O)NC(=O)[C@H](CO)NC(=O)[C@@H](NC(=O)[C@H](Cc1ccccc1)NC(=O)[C@@H](NC(=O)CNC(=O)[C@H](CCC(N)=O)NC(=O)C(C)(C)NC(=O)[C@@H](N)Cc1ccc(O)cc1)[C@@H](C)O)[C@@H](C)O)C(=O)N[C@@H](Cc1ccc(O)cc1)C(=O)N[C@@H](CC(C)C)C(=O)N[C@@H](CC(=O)O)C(=O)N[C@@H](CCCCN)C(=O)N[C@@H](CCC(N)=O)C(=O)N[C@@H](C)C(=O)N[C@@H](C)C(=O)NC(C)(C)C(=O)N[C@@H](CCC(=O)O)C(=O)N[C@@H](Cc1ccccc1)C(=O)N[C@H](C(=O)N[C@@H](CC(N)=O)C(=O)N[C@@H](Cc1c[nH]c2ccccc12)C(=O)N[C@@H](CC(C)C)C(=O)N[C@@H](CCSC)C(=O)N[C@@H](CC(N)=O)C(=O)NCC(=O)NCC(=O)N1CCC[C@H]1C(=O)N[C@@H](CO)C(=O)N[C@@H](CO)C(=O)NCC(=O)N[C@@H](C)C(=O)N1CCC[C@H]1C(=O)N1CCC[C@H]1C(=O)N1CCC[C@H]1C(=O)N[C@@H](CO)C(=O)N[C@@H](CCCCN)C(N)=O)C(C)C [mt-356] (H-Y[Aib]QGTFTSDYSIYLDKQAA[Aib]EFVNWLMNGGPSSGAPPPSK-NH2; N-terminus assumed)	–	–	–	–	–	–	126.06	224.02	25.66
